# Source: patent US9388405B2, “Method for identifying a subpopulation of mammalian cells with distinctive ribosome translation profiles” (priority 2009, dated 2016)
# How the values were obtained:
# Assay type in all cases: cell-based, human
# [1] = test system: MCF7 CMV-fLuc subclones #44 and #48; experiment: PKC activator dose response, cap-dependent translation (fLuc); details: single-Toxin, 6 hr
# Protocol: Following 6 hr exposure to the Single-Toxin TPA assay, cells were lysed and fLuc protein activity measured using a standard microplate reader assay. The raw values were averaged and expressed as the ratio of treated to untreated samples (Fold Induction).
# Dashed lines represent translational response levels produced by a 100 nM TPA Single-Toxin assay. The Bryostatin 1 concentrations (top panel) encompassed the TPA concentrations used in FIG. 27A. […] The Bryostatin 2 dose response curve (bottom panel) employed higher drug concentrations (the maximal tested dose was 5× the largest TPA and Bryostatin 1 amounts). At the highest tested dose (2.5 uM), Bryostatin 2 produced fLuc activity consistent with the level observed with 100 nM TPA.
# In addition to measuring cap-dependent and cap-independent translational effects, Class-specific translational activity and toxin-defined actions, the previously described materials and methods allow for a variety of applications designed to detect and characterize agents and processes that regulate ribosome activity. In this example, comparative dose response assays were used to detect cap-dependent and cap-independent translational regulation in MCF7 cells. The basis for this application was the observation that distinct translational responses are produced by compounds at different doses. When an assortment of compounds act on a common molecular target, they can be grouped into a genus of related drugs. By comparing individual species of a compound genus over a defined dose range, differences in translational regulation can be defined. Furthermore, these translational differences can often be linked to biological differences.
# In this example (FIG. 27), the three PKC activators produced similar dose response trends in cap-dependent assays. […] However, macrolide lactones produced translational increases that were generally 60-70% of the TPA translational response (FIG. 27B). In fact, a 25 fold increase in Bryostatin 2 concentration (2.5 uM) was needed to produce a translational magnitude similar to the 100 nM TPA assay (FIG. 27B).
# [2] = test system: MCF7 mTRdm-fLuc subclones #8, #27, and #45; experiment: PKC activator dose response, cap-independent TR translation (fLuc); details: single-Toxin, 6 hr
# Protocol: Following 6 hr culture with a TPA single-Toxin assay, cells were lysed and fLuc protein activity measured using a standard microplate reader assay. The plate reader values were averaged and expressed as the ratio of treated to untreated samples (Fold Induction).
# As with FIG. 27B, dashed lines represent translational response levels achieved by the 100 nM TPA assay in each cell line. […] A further difference between the cap-dependent and cap-independent assays was the observation that increased Bryostatin 2 concentrations (5× the maximal TPA dose) never produced fLUC activity equivalent to the 100 nM TPA assay. Thus, the Toxin Assay procedure can detect a statistically significant difference in cap-dependent and cap-independent translation in compounds that activate PKC activity.
# In the cap-independent assays, a similar dose response trend was observed over a 1 nM to 250 nM range with a translational peak at a 100 nM dose. However, the magnitude of the Bryostatin increases were generally 30% of 100 nM TPA response.
# [3] = test system: HCT116 mTRdm-fLUC cells; experiment: 5-Assay / 15-Assay toxin assays, fLUC plate reader (Fold Induction)
# Protocol: The 5-Assay and 15-Assay procedures were applied to cellular pools using either of two growth procedures (e.g. a Cell Count or Confluence growth assay). For a Cell Count assay, cells from the P1 pool dish were counted and passed into a white clear bottom 96-well microtiter tray at a density of 25,000 cells per well; the leftover cells were passed into a passage 2 (P2) dish. Cells in the microtiter plate were allowed to grow for about 40 hr to achieve a ˜75% cell confluence prior to incubation with a toxic agent. Then cells in a microtiter plate were treated with complete growth medium containing either no toxin or an optimal toxin, defined as a single or multiple toxin assay that produces a maximal translational response (taken from Table 3) and incubated for 6 hours at 37° C. Each treatment was performed on triplicate wells.
# After toxin incubation, cells were examined by phase contrast microscopy for signs of detachment. If more than ˜10% of cells were detached, the 96-well plates were centrifuged at 1200 rpm for 3 min to pellet the detached cells. The media were removed and replaced with 50 μL of Cell Lysis Buffer (25 mM Tris-phosphate (pH7.8), 10% glycerol, 1% Triton X-100, 1 mg/ml BSA, 2 mM EGTA and 2 mM DTT). Cells were incubated with the Cell Lysis Buffer for 10 min at RT and cell lysis was verified using a phase contrast microscope. To ensure complete lysis, the lysates were vigorously agitated using the multichannel pipettor. Any air bubbles formed as a result of agitation were manually removed with a syringe needle. Luminescence was measured using the FLUOstar Optima (BMG Labtech) microplate reader. To develop luminescence, wells were injected with 5 μL of the D-luciferin solution dissolved in Reaction Buffer (25 mM Glycylglycine (pH 7.8), 15 mM MgSO4, 4 mM EDTA, 15 mM Potassium phosphate, 1 mM DTT, 1 mM Coenzyme A, 6.7 mM ATP and 3.35 mM D-luciferin). After 4 sec with shaking, luminescence values were measured using the lens filter at gains of 2500-4000.
# Light values were converted to Fold Induction using the ratio of values produced by treated and untreated cells. The maximal TR-specific translational response produced by the 5-Toxin or 15-Toxin assay was used to assign an optimal toxin assay (maximal translational response) which was subsequently used to screen subclones derived from this pool and to assign a Class designation. […]
# In one test, the 5-Assay procedure (Table 3) was applied to HCT116 mTRdm-fLUC 12-16 subclone #30 cells (FIG. 1A). […] Samples were then processed with Lysis buffer and read in a plate reader. […]
# Triplicate samples of HCT116 mTRdm-fLUC 12-16 Sub#30 cells were cultured with the two-Toxin assays using a standard plate reader protocol (FIG. 1C). […]
# [4] = test system: HEK293 CMV-fLuc subclone #3; experiment: Updated 15-Assay / 21-Assay, cap-dependent translational responses; details: Updated 15-Assay two-Toxin with 100 nM TPA, cap-dependent
# Text: (§1) The dashed line represents the level of translational response in the untreated samples.
# Following 6 hr exposure to the compounds, cells were lysed and fLuc protein activity measured using a standard microplate reader assay. The triplicate plate reader values were averaged and expressed as the ratio of treated to untreated samples (Fold Induction). The dashed line represents the level of translational response in the untreated samples.
# (§2) The 21-Assay procedure employs the same standard toxins as the Updated 15-Assay protocol. The extra 6 assays involve an unknown or an uncharacterized compound and its pairwise combinations with the five toxins: Unknown, Unknown+TPA, Unknown+Colchcine, Unknown+Bortezomib (Velcade), Unknown+Low dose Calon, and Unknown+Hycamtin (Topotecan).
# Application of single-Toxin and two-Toxin assays in the Updated 15-Assay protocol was used to define cap-dependent translational responses in the HEK293 CMV-fLuc #3 subclone (FIG. 30A).
# The combinatorial process described in this example provides a system for testing translational regulation by unknown compounds. In this example, a 21-Assay setup is described that employs the single and pairwise combinatorial application of 5 toxins, as in a standard 15-Toxin assay, and the addition of a sixth substance. Inclusion of the sixth substance requires the expansion of the assay group to a total of 21 single- and two-Toxin assays. For this example, a control substance (taxol) was selected from the original 15-Assay system.
# [5] = test system: MCF7 mTRdm-fLuc subclone #27; experiment: Topoisomerase 1 inhibitor single-Toxin and two-Toxin (100 nM TPA) dose response, cap-independent
# Protocol: FIG. 28C illustrates the use of single-Toxin Assays to measure the effects of Topoisomerase 1 inhibitors on cap-independent translation in MCF7 cells. Triplicate samples of the MCF7 mTRdm-fLuc subclone #27 were treated with varying concentrations (10 nM to 10 uM range) of the Topoisomerase 1 inhibitors; camptothecin, rubitecan, irinotecan and topotecan. The plate reader values were averaged and expressed as the ratio of treated to untreated samples (Fold Induction). The dashed line represents the level of translational response in untreated controls.
# FIG. 28D illustrates the use of a two-Toxin Combinatorial Assay on the MCF7 mTRdm-fLuc subclone #27 treated with 100 nM TPA plus varying doses (10 nM to 10 uM range) of the Topoisomerase 1 inhibitors. The plate reader values were averaged and expressed as the ratio of treated to untreated samples (Fold Induction). The dashed line represents the level of translational response in untreated samples. All four inhibitors acted synergistically with TPA to increase protein activity in the 10 nM two-Toxin assay.
# FIG. 28D illustrates the use of a two-Toxin dose response assay using varying dosages of the TopoI inhibitors in combination with the 100 nM TPA translational activator. All four inhibitors acted synergistically with TPA at low doses to increase protein translation. At concentrations higher than 100 nM, camptothecin, rubitecan, and topotecan antagonized the TPA response and reduced the fLUC expression.
# [6] = test system: MCF7 CMV-fLuc subclone #65; experiment: Topoisomerase 1 inhibitor single-Toxin and two-Toxin (100 nM TPA) dose response, cap-dependent; details: 10 nM to 10 uM
# Protocol: FIG. 28A illustrates a dose response assay of the MCF7 CMV-fLuc subclone #65 treated with varying doses (10 nM to 10 uM range) of the following Topoisomerase 1 inhibitors: camptothecin, topotecan, irinotecan, and rubitecan. Following a 6 hr incubation in a single-Toxin assay, cells were lysed and fLuc protein activity measured using a standard microplate reader assay. The plate reader values were averaged and expressed as the ratio of treated to untreated samples (Fold Induction). The dashed line represents the level of translational response in untreated cell samples.
# FIG. 28B illustrates the use of a Combinatorial Assay to examine the effects of Topoisomerase 1 inhibitors on cap-dependent translation. A series of dose response assays were performed on the MCF7 CMV-fLuc subclone #65 using varying doses of the Topoisomerase 1 inhibitors (10 nM to 10 uM range) in a Two-Toxin assay with a constant 100 nM TPA dose. The plate reader values were averaged and expressed as the ratio of treated to untreated samples (Fold Induction). The dashed line represents the level of translational response in untreated samples.
# FIG. 28A illustrates a cap-dependent dose response assay of MCF7 cells treated with varying dosages (10 nM to 10 uM range) of the following TopoI inhibitors: camptothecin, topotecan, irinotecan, and rubitecan. […] While the altered irinotecan response might have been predicted based on its metabolic requirements, the lack of topotecan action on cap-dependent translation in the single-Toxin assays was unexpected.
# Since similar doses inhibited translation in the single-Toxin assays (FIG. 28A), this effect might have represented a direct effect on translation.
# [7] = test system: HEK293 mTRdm-fLuc subclone #13 and HEK293 hTRdm-gLuc subclone #79; experiment: Updated 15-Assay / 21-Assay, TR translational responses (fLuc, gLuc); details: Updated 15-Assay, High Dose 10 uM, single- and two-Toxin
# Protocol: as §1
# As before, secreted Gaussia Luciferase (gLUC) activity was measured in conditioned media 6 hr after drug application and protein activity expressed as the ratio of treated to untreated samples (Fold Induction). The dashed line represents the translational response in untreated cells.
# The dashed line represents the translational response produced by untreated cell samples.
# Following a 6 hr culture time, secreted gLuc activity was measured in conditioned media using a standard microplate reader assay and expressed as the ratio of treated to untreated samples (Fold Induction). The dashed line represents the level of translational response in the untreated samples. Given that the gLuc protein is secreted into the media, it escapes the cytoplasmic protein turnover processes acting on the fLUC protein. Therefore, any difference in the apparent TR response is a likely result of variation in reporter protein synthesis, secretion or reduced protein turnover.
# as §2, with “(Topotecan). […]” for “(Topotecan).”
smiles,measurement,setting,value
"CCCCCCCCCCCCCC(=O)O[C@@H]1[C@@H](C)[C@@]2(O)[C@@H](C=C(CO)C[C@]3(O)C(=O)C(C)=C[C@@H]23)[C@@H]2C(C)(C)[C@]12OC(C)=O [TPA, 12-O-tetradecanoylphorbol-13-acetate]",dose giving maximal reporter level (translational peak),[1],100 nM
same,dose giving peak fLuc protein activity,[2],100 nM
same,TR-specific toxin response,"[3]; 5-Assay, 6 hr, HCT116 mTRdm-fLUC 12-16 subclone #38",Maximal TR-specific toxin responses
same,increase in reporter activity (maximal TR-specific response),"[3]; 5-Assay, TPA single-Toxin 100 nM, 6 hr, HCT116 mTRdm-fLUC 12-16 subclone #30",800-1200%
"CC(C)C[C@H](NC(=O)[C@H](Cc1ccccc1)NC(=O)c1cnccn1)B(O)O [Velcade, [(1R)-3-methyl-1-[[(2S)-1-oxo-3-phenyl-2-[(pyrazinylcarbonyl)amino]propyl]amino]butyl] boronic acid]",effect on the TPA response,[4],TPA response was antagonized
"CNc1ccc2oc(C[C@H]3O[C@@]4(CC[C@H]3C)O[C@H]([C@H](C)C(=O)c3ccc[nH]3)[C@H](C)C[C@H]4C)nc2c1C(=O)O [calcimycin, Calcimycin]",effect on the TPA response,[4],TPA response was antagonized
"CCCC(=O)Nc1ncnc2c1ncn2[C@@H]1O[C@@H]2COP(=O)(O)O[C@H]2[C@H]1OC(=O)CCC [dbcAMP, Dibutyryl-cyclic AMP]",translational response,"[3]; dbcAMP single-Toxin assay, HCT116 mTRdm-fLUC transformed subclones",minimal translational response
"CC[C@@]1(O)C(=O)OCc2c1cc1n(c2=O)Cc2cc3c(CN(C)C)c(O)ccc3nc2-1.Cl [topotecan, (S)-10-[(dimethylamino)methyl]-4-ethyl-4,9-dihydroxy-1H-pyrano[3′,4′:6,7]indolizino[1,2-b]quinoline-3,14(4H,12H)-dione monohydrochloride]",effect on the TPA response,[4],TPA response was antagonized
same,effect on cap-independent translation,"[5]; single-Toxin, 10 nM to 10 uM",exhibited reduced fLUC activity at higher doses (5 uM and 10 uM)
same,effect on TPA activity,"[5]; two-Toxin with 100 nM TPA, 10 nM to 10 uM",antagonized the TPA activity and exhibited reduced fLUC expression
same,fLUC expression at the highest dose,"[5]; two-Toxin with 100 nM TPA, highest dose",basal level expression
same,effect on cap-dependent translation,[6]; single-Toxin,neither topotecan or irinotecan significantly altered cap-dependent translation
same,effect on TPA-specific translational response,"[6]; two-Toxin with constant 100 nM TPA, cap-dependent",showed only the TPA inhibitory effect at high doses (i.e. 5 uM and 10 uM)
same,effect on translation,[7],inhibitory effect of Topotecan (HD) was evident in all Single- and two-Toxin assays
